This is an account of results in US4574127A, “Oxazoles and thiazoles containing an aminohydroxypropoxyphenyl moiety” (Merck & Co., Inc., priority 1984, dated 1986).

For one assay, the target named is T1, β1-receptor (Cavia porcellus, UniProt H0W3H1).
T1 construct: isolated guinea pig atrial preparations; from tissue; host or cells: guinea pig atria
In words: in vitro β-adrenergic blocking activity: inhibition of positive chronotropic actions of isoproterenol in isolated guinea pig atrial preparations. Particulars: vs isoproterenol, read-out: β1 pA2 (converted). How it is done:
(§1) Expressed in different terms, a smaller amount of a compound of the invention is required to block isoproterenol-induced elevation in heart rate than is required to block the isoproterenol-induced relaxation of the bronchi. […] Med. Chem., 26, 956-7 (1983) pursuant to which in vitro β-adrenergic blocking activity is determined by the interaction with β1 -receptor via inhibition of the positive chronotropic actions of isoproterenol in isolated guinea pig atrial preparations. β2 potency is determined by using isolated guinea pig tracheal chains contracted with PGF2α and by measuring inhibition of isopreterenol-induced relaxation.

For assay [1], the target named is T2, β2 (Cavia porcellus, UniProt Q8K4Z4).
T2 construct: isolated guinea pig tracheal chains; from tissue; host or cells: guinea pig trachea
In words: β2 potency: inhibition of isoproterenol-induced relaxation of isolated guinea pig tracheal chains contracted with PGF2α. Particulars: isolated guinea pig tracheal chains contracted with PGF2α, vs isoproterenol, in vitro; for Kb: read-out: β2 pA2 (converted). How it is done:
as §1

Assay [2] deals with β2. Described as above. Particulars: ratio of ED50 for pulmonary effect (β2) : ED50 for cardiac effect (β1); over 1 = cardioselective. How it is done:
as §1

T1 sequence (H0W3H1 1-470): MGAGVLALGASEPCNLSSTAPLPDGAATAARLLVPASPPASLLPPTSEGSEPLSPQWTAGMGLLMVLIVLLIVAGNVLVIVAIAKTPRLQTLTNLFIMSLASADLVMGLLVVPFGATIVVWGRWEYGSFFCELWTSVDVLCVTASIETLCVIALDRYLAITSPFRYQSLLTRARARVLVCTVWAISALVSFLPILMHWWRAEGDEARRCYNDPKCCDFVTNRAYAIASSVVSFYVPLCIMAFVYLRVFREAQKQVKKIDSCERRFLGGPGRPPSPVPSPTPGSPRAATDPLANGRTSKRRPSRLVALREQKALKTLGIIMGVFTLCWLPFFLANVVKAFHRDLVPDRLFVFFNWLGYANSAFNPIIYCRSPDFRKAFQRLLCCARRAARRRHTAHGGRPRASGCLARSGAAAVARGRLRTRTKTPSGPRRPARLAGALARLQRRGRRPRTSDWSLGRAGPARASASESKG
T2 sequence (Q8K4Z4 whole entry): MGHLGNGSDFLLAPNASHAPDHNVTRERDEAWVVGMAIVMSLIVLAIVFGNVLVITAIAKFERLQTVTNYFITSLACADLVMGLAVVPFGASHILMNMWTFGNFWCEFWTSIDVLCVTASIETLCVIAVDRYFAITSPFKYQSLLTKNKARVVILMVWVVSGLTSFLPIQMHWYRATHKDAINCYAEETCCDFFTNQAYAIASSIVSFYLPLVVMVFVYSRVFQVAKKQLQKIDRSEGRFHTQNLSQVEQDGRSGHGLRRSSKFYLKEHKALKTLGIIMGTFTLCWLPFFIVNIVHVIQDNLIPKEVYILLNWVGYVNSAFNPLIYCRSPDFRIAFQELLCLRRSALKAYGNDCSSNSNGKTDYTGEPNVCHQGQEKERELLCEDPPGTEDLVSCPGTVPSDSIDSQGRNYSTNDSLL

`COc1ccc(CCNCC(O)COc2ccc(-c3ncco3)cc2)cc1OC` (stereo not drawn) [Example 1, 2-{p-[3-(3,4-Dimethoxyphenethylamino)-2-hydroxypropoxy]phenyl}oxazole]: the Kb on β1-receptor was 1120 nM. Besides, the “β2 pA2” value on β2 [1] is given as 4.67. Further, the “β2:β1 ratio (cardioselectivity)” value in the assay on β2 [2] was 19.

On to `COc1ccc(CCNC[C@H](O)COc2ccc(-c3nccs3)cc2)cc1OC` [Example 2, (S) 2-{p-[3-(3,4-Dimethoxyphenylethyl)amino-2-hydroxypropoxy]phenyl}thiazole], for which the Kb at β1-receptor is 58.9 nM; at β2 [1], 47900 nM. Moreover, the “β2:β1 ratio (cardioselectivity)” value in the assay on β2 [2] is reported as 813.

Take `OC(CNC1CC1)COc1ccc(-c2nccs2)cc1` (stereo not drawn) [Example 3, 2-[p-(3-Cyclopropylamino-2-hydroxypropoxy)phenyl]thiazole]: the figures for the Kb at β1-receptor and at β2 [1] were 2340 nM and 200000 nM, respectively. Moreover, in the assay on β2 [2], the “β2:β1 ratio (cardioselectivity)” value is listed as 85.
